21 compounds from ChEMBL document CHEMBL1158954, “Anti-AIDS agents, 3. Inhibitory effects of colchicine derivatives on HIV replication in H9 lymphocyte cells” (J Nat Prod, 1991) can be followed below.

Structures are written as SMILES. pEC50, pIC50: −log10 of the molar value. Bounds are passed on as bounds.

In assay [1] the test system is H9. Nature of the assay: Cytotoxicity against human H9 cells. Type of assay: ADME, cell-based.
Assay [2] deals with H9 (Homo sapiens). Nature of the assay: microbe, parasite or virus in culture. The note with it: H9, 72 h.

Broadly, the pEC50 is the EC50 on a negative log10 scale, so that one unit is a factor of ten. The low end stands for a large EC50, the high end for a small EC50. The term pIC50 denotes −log10 of the IC50, conventionally taken in molar units. Read a high pIC50 as a small IC50.

`COc1cc2c(c(OC)c1O)-c1ccc(SC)c(=O)cc1[C@@H](NC(C)=O)CC2` had a pEC50 in assay [1] of 7.33. In addition, the pIC50 in assay [2] is 7.28. Take `COc1cc(/C=C/C(=O)N[C@H]2CCc3cc(OC)c(OC)c(OC)c3-c3ccc(OC)c(=O)cc32)cc(OC)c1O`: the pEC50 in assay [1] is 6.74. The pIC50 in assay [2] is 6.74.

The compound `COc1cc(C(=O)N[C@H]2CCc3cc(OC)c(OC)c(OC)c3-c3ccc(OC)c(=O)cc32)cc(OC)c1OC` showed a pEC50 in assay [1] of 7.70. Also, the pIC50 in assay [2] was 7.40. `COc1cc(/C=C/C(=O)N[C@H]2CCc3cc(OC)c(OC)c(OC)c3-c3ccc(OC)c(=O)cc32)cc(OC)c1OC`: the pEC50 in assay [1] is 8.26. This compound gave a pIC50 in assay [2] of 8.26. The compound `COc1cc2c(c(OC)c1OC)-c1ccc(N(C)C)c(=O)cc1[C@@H](NC(C)=O)CC2` gave a pEC50 in assay [1] of 7.07. The pIC50 in assay [2] was 7.07.

The compound `COc1cc(C(=O)N[C@H]2CCc3cc(OC)c(OC)c(OC)c3-c3ccc(OC(=O)c4cc(OC)c(OC)c(OC)c4)c(=O)cc32)cc(OC)c1OC` had a pEC50 in assay [1] of 5.85. In assay [1], `COc1cc2c(c(OC)c1OC)-c1ccc(O)c(=O)cc1[C@@H](NC(=O)C(F)(F)F)CC2` had a pEC50 of 6.24. This compound also had a pIC50 in assay [2] of 6.70. Turning to `COc1cc2c(c(OC)c1O)-c1ccc(O)c(=O)cc1[C@@H](NC(C)=O)CC2`, in assay [1], the pEC50 is 6.57. Besides, the pIC50 in assay [2] is 6.57. On to `COc1cc2c(c(OC)c1OC)-c1ccc(N(C)C)c(=O)cc1[C@@H](N)CC2`, for which the pEC50 in assay [1] is 6.03. The negative-log IC50 (pIC50) in assay [2] is 5.80. The compound `CC(=O)N[C@H]1CCc2cc(O)c(O)c(O)c2-c2ccc(O)c(=O)cc21` gave a pEC50 in assay [1] of 5.92. This compound also had a pIC50 in assay [2] of 5.92. In assay [1], `COc1cc2c(c(OC)c1OC)-c1ccc(OC)c(=O)cc1[C@@H](NC(=O)/C=C/c1ccc(O)c(O)c1)CC2` showed a pEC50 of 6.54. This compound also had a pIC50 in assay [2] of 6.54.

`COc1cc2c(c(OC)c1OC)-c1ccc(=O)c(OC)cc1[C@@H](N)CC2` had a pEC50 in assay [1] of 5.55. Besides, in assay [2], the pIC50 was 5.55.

Take `N[C@H]1CCc2cc(O)c(O)c(O)c2-c2ccc(=O)c(O)cc21`: the pEC50 in assay [1] was 4.52. The compound also gave a pIC50 in assay [2] of 4.30.

On to `COc1cc2c(c(OC)c1O)-c1ccc(SC)c(=O)cc1[C@@H](N)CC2`, for which the pEC50 in assay [1] was 5.96. Besides, the pIC50 in assay [2] is 5.85. On to `COc1cc2c(c(OC)c1OC)-c1ccc(O)c(=O)cc1[C@@H](N)CC2`, for which the pEC50 in assay [1] was 5.89. Besides, the pIC50 in assay [2] is 5.92. With `COc1cc2c(c(OC)c1OC)-c1ccc(=O)c(N(C)C)cc1[C@@H](N)CC2`, in assay [1], the pEC50 is less than 5.57. The compound further gave a pIC50 in assay [2] of less than 5.57. Take `COc1cc2c(c(OC)c1OC)-c1ccc(OC)c(=O)cc1[C@@H](NC(=O)C(F)(F)F)CC2`: in assay [1], the pEC50 is 8.06. This compound gave a pIC50 in assay [2] of 8.18.

Turning to `COc1cc2c(c(OC)c1OC)-c1ccc(=O)c(OC)cc1[C@@H](NC(=O)C(F)(F)F)CC2`, in assay [1], the pEC50 is 6.18. This compound showed a pIC50 in assay [2] of 6.18. In turn, `O=C(N[C@H]1CCc2cc(O)c(O)c(O)c2-c2ccc(=O)c(O)cc21)C(F)(F)F` gave a pEC50 in assay [1] of 4.64. The same compound gave a pIC50 in assay [2] of 4.64. In assay [1], `COc1cc2c(c(OC)c1O)-c1ccc(OC)c(=O)cc1[C@@H](NC(C)=O)CC2` [2-DESMETHYLCOLCHICIN] had a pEC50 of 6.59. For the same compound, in assay [2], the pIC50 is 6.59. `COc1cc2c(c(OC)c1OC)-c1ccc(OC)c(=O)cc1[C@@H](NC(C)=O)CC2` [COLCHICINE] showed a pEC50 in assay [1] of 8.00. The compound also showed a pIC50 in assay [2] of 7.74.
